Results published in publication PMC4800267 (Assay and Drug Development Technologies, 2016).
“And” between values parts separate entries of the source, which are not always exact repeats. Identical values can stand only once. “Also recorded” adds a separate entry of the source. Like-named read-outs stand apart in the source and are kept apart here.

How the values were obtained:
Nav1.3 = conditions: read-out: IC50 Nav1.3; cited from earlier work
Nav1.1 = conditions: read-out: IC50 Nav1.1; cited from earlier work
rat Nav1.7 = conditions: cited from earlier work
hNav1.3 = hNav1.3 (Homo sapiens, UniProt Q9NY46); assay type: cell-based; conditions: inactivated-state Peak 2
[1] = test system: endogenous TTX-S currents in ND7-23 cells; assay: cells; assay type: cell-based, rodent; conditions: for effect on resting- or inactivated-state TTX-S currents: 300 nM
mNav1.6 = mNav1.6 in Xenopus oocytes; cited from earlier work
hNav1.7 = hNav1.7 (Homo sapiens, UniProt Q15858); conditions: hNav1.7 in Xenopus oocytes; cited from earlier work
rNav1.4 = rNav1.4 in Xenopus oocytes; cited from earlier work
hNav1.5 = hNav1.5 on QPatch; cited from earlier work

hNav1.3, sequence (Q9NY46 whole entry): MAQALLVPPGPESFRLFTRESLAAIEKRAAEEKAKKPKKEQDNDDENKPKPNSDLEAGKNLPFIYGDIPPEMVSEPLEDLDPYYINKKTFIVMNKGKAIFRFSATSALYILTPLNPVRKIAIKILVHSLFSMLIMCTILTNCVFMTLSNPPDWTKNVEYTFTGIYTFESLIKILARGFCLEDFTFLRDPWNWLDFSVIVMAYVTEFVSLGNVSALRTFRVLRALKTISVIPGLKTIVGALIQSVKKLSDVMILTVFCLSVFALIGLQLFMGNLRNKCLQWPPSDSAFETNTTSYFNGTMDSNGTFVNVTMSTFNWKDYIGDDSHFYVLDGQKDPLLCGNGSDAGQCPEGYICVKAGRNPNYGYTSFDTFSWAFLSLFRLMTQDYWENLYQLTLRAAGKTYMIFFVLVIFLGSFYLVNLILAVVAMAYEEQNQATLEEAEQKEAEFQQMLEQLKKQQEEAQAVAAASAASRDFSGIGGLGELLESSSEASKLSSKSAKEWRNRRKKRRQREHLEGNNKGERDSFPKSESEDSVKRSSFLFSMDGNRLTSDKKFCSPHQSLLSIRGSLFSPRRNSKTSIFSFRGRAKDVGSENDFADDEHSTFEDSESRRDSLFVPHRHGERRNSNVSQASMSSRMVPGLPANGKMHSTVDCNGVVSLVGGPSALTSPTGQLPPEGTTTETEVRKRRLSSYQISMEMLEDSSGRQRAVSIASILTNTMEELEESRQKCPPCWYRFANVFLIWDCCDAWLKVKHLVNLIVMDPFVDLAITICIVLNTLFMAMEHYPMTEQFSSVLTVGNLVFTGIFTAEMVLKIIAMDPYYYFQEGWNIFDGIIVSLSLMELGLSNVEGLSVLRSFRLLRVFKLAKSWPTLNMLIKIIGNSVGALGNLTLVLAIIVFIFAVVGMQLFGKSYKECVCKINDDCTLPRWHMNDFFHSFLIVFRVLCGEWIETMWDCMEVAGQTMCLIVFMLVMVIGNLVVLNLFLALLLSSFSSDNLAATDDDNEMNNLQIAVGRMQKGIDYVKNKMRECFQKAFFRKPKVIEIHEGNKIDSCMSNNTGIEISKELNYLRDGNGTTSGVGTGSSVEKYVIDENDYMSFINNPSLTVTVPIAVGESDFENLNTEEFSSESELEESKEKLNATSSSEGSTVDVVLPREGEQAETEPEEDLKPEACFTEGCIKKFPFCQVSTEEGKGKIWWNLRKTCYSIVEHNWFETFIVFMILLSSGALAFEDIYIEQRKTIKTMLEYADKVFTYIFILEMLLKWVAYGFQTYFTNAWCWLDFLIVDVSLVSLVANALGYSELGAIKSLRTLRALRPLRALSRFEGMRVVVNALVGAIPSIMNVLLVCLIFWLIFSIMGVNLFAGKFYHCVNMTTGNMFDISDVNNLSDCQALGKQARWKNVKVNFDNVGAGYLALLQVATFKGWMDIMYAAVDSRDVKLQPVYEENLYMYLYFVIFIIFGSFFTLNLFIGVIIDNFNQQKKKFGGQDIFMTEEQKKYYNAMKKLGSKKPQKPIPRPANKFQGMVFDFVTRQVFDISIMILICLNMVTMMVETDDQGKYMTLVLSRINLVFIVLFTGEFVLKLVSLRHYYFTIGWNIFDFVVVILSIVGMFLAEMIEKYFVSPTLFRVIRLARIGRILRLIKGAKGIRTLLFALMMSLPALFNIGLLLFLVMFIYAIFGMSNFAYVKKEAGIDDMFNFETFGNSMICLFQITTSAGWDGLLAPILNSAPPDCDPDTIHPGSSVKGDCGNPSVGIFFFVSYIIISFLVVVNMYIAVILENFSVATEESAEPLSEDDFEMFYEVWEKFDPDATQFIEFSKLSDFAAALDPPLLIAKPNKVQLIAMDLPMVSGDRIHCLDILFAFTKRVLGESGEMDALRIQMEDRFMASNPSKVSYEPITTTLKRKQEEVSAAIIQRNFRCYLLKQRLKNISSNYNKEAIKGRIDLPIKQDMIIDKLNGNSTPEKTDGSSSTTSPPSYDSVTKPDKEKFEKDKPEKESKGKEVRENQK
hNav1.7, sequence (Q15858 whole entry): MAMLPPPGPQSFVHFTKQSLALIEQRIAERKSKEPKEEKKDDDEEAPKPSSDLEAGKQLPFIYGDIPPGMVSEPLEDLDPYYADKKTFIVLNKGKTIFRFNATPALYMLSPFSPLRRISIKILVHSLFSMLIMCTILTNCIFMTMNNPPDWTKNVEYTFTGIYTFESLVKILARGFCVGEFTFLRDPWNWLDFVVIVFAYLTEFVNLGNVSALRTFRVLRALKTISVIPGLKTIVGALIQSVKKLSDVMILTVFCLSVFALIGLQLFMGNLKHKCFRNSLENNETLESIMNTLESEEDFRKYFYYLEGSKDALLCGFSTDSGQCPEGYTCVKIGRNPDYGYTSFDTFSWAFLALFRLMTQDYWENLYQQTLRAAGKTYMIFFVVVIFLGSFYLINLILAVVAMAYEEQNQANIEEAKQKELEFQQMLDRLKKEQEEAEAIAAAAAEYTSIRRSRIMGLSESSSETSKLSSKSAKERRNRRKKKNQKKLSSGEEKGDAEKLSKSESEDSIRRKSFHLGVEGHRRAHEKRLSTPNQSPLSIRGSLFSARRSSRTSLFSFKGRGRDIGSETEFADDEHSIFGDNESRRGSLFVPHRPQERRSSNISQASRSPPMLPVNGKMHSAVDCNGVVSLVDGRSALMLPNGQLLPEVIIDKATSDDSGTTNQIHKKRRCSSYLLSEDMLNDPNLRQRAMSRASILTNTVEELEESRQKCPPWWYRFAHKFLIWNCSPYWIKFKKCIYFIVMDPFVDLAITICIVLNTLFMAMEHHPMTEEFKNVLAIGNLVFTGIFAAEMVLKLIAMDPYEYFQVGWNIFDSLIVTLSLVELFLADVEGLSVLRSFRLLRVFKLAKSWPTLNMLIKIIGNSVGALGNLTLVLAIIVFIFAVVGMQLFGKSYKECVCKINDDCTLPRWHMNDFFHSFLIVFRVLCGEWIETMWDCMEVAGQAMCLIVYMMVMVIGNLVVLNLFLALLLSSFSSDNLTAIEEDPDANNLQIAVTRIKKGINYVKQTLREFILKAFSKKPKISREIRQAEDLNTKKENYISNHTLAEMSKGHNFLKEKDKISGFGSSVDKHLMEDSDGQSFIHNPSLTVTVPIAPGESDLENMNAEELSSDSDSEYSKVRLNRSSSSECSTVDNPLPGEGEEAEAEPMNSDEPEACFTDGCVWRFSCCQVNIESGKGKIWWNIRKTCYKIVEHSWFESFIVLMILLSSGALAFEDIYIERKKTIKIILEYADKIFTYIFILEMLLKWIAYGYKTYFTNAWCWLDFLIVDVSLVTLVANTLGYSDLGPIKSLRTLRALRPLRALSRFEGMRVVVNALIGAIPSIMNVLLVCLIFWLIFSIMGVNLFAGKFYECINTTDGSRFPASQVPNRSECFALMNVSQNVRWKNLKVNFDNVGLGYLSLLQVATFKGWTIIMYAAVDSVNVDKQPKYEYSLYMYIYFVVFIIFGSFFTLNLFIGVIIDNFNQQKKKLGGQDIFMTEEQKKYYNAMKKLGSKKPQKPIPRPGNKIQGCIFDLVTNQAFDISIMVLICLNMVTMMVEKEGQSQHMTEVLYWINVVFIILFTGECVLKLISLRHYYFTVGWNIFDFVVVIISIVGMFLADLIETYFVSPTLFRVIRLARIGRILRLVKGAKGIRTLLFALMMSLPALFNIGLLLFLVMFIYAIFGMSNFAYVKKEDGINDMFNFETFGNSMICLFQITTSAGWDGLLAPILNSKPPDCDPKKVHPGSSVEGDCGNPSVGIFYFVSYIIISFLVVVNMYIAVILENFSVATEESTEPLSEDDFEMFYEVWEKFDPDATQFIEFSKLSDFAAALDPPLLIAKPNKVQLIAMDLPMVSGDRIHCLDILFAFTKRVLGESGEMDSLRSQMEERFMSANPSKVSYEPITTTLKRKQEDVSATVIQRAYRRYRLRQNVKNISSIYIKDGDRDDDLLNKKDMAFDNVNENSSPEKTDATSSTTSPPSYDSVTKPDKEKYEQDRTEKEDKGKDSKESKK

Structure (SMILES)	IC50 (Nav1.3) [nM]	IC50 (Nav1.1) [nM]	potency against rat Nav1.7 channels (rat Nav1.7)	hillslope, Peak 2 (hNav1.3)	effect on resting- or inactivated-state TTX-S currents [1]	effect on resting- or inactivated-state TTX-S currents ([1]; listed as Icagen Nav1.3 antagonist)	reduction of resting-state Peak 1 TTX-S current ([1]; 1 μM, Peak 1, mean ± SEM)	reduction of inactivated Peak 2 TTX-S current ([1]; 1 μM, Peak 2, mean ± SEM)	inhibition at 0.3 µM ([1]; ND7/23, read-out: ND7-23 TTX-S % Inhibition, Peak 1) [%]	inhibition at 0.3 µM ([1]; ND7/23, read-out: ND7-23 TTX-S % Inhibition, Peak 2) [%]	IC50 ([1]; ND7/23, read-out: ND7-23 TTX-S IC50, Peak 1) [nM]	IC50 ([1]; ND7/23, read-out: ND7-23 TTX-S IC50, Peak 2) [nM]	inhibition at 0.3 µM ([1]; ND7/23, read-out: inhibition of inward TTX-S currents) [%]	inhibition of TTX-S currents, maximum over all concentrations tested ([1]; all test concentrations) [%]	effects on resting or inactivated current amplitudes (mNav1.6)	effects on resting or inactivated current amplitudes (hNav1.7)	effects on resting or inactivated current amplitudes (rNav1.4)	effects on resting or inactivated current amplitudes (hNav1.5)
O=C(Nc1ccc(S(=O)(=O)Nc2nccs2)cc1)C(c1ccccc1)c1ccccc1 [ICA-121431]	~20	~20	low nanomolar potency	–	–	–	–	–	–	–	–	–	–	–	–	–	–	–
O=C(Nc1ccc(S(=O)(=O)Nc2nccs2)cc1)[C@@H]1C[C@H]1c1ccccc1 [Icagen compound 68, (1R,2R)-2-phenyl-N-(4-(N-(thiazol-2-yl)sulfamoyl)phenyl)cyclopropane-1-carboxamide]	–	–	–	1.2	no effect; also recorded: negligible effects	no significant effect	0.7% ± 3.0%	8.5% ± 1.7% and 8.5%	0.8	-0.5	> 10000	> 10000	~0.5	< 50	no significant effects	no significant effects	no significant effects	no significant effects
